This series can be described thus: Waters ACQUITY UPLC BEH C18, 100 × 2.1 mm, 1.7 µm, 40 °C, 0.3 to 0.4 mL/min, estimated dead time 0.63 min; A: water + 0.1% formic acid; B: methanol + 0.1% formic acid; gradient (min/%B) 0/0.5 0.1/0.5 10/80 10.1/99.5 12/99.5. The following applies: stereoisomer not certain.

Turning to `O=c1c(O)c(-c2ccc(O)c(O)c2)oc2cc(OC3OC(CO)C(O)C(O)C3O)c(O)c(O)c12` (centres undefined), the LC retention time was 3.72 min.

As to `CC1OC(OC2CCC3(C)C(CCC4(C)C3CC=C3C5CC(C)(C)CCC5(C(=O)O)CCC34C)C2(C)CO)C(O)C(OC2OC(CO)C(OC3OC(CO)C(O)C(O)C3O)C(O)C2O)C1O` (centres undefined), the LC retention time is 6.92 min.

As to `COc1cc2cc3c4cc(OC)c(OC)cc4cc[n+]3c(C)c2cc1OC`, the LC retention time is 5.27 min.

As for `CC(C)=CCc1cc(C2CC(=O)c3c(O)cc(O)c(CC=C(C)C)c3O2)cc(O)c1O` (centres undefined), the LC retention time is 9.09 min.

For `CC(C)CC(N)C(=O)NC(C(=O)O)C(C)C` (centres undefined), the LC retention time is 2.66 min.

For `COc1ccc2cc1Oc1ccc(cc1)CC1=NCCc3cc(OC)c(cc31)Oc1c(OC)c(OC)c(O)c3c1C(C2)N(C)CC3` (centres undefined), the LC retention time is 3.96 min.

Consider `CCCCCC(O)CC(=O)CCc1ccc(O)c(OC)c1` (centres undefined), for which the LC retention time is 7.45 min.

As for `CC1=C(CCC(C)COC2OC(CO)C(O)C(O)C2O)OC2CC3C4CC=C5CC(O)CC(OC6OCC(O)C(O)C6OC6OC(C)C(O)C(O)C6O)C5(C)C4CCC3(C)C12` (centres undefined), the LC retention time was 5.59 min.

Consider `CC1CCC2C(C)C3C(CC4C5CC=C6CC(O)CCC6(C)C5CC(O)C43CO)N2C1` (centres undefined), for which the LC retention time was 3.7 min.

On to `C=CC1C(OC2OC(CO)C(O)C(O)C2O)OC=C2C(=O)N3CCC(=O)c4ccccc4NC(=O)C3CC21` (centres undefined), for which the LC retention time is 3.77 min.

As to `COc1cc(C=Cc2ccc(O)cc2)cc(OC)c1`, the LC retention time is 8.02 min.

In the case of `CC(CCC1(O)OC2CC3C4CC=C5CC(OC6OC(CO)C(OC7OC(C)C(O)C(O)C7O)C(O)C6OC6OC(C)C(O)C(O)C6O)CCC5(C)C4CCC3(C)C2C1C)COC1OC(CO)C(O)C(O)C1O` (centres undefined), the LC retention time was 5.05 min.

Take `O=C(C=Cc1ccc(O)c(O)c1)OC1CC(OC(=O)C=Cc2ccc(O)c(O)c2)(C(=O)O)CC(O)C1O` (centres undefined): the LC retention time is 3.49 min.

As to `C=CC1CN2CCC1CC2C(O)c1ccnc2ccc(OC)cc12` (centres undefined), the LC retention time was 3.31 min.

As for `O=C(O)C=Cc1ccccc1`, the LC retention time was 5.42 min.

As to `COC(=O)C=Cc1ccccc1`, the LC retention time is 2.87 min.

For the compound `CCCC(=O)OC(CC(=O)[O-])C[N+](C)(C)C` (centres undefined), the LC retention time was 2.18 min.

`O=C(C=Cc1ccc(O)c(O)c1)OC1C(O)CC(O)(C(=O)O)CC1O` (centres undefined): the LC retention time is 4.6 min.

With `COc1ccc2c3c([nH]c2c1)C1CC2C(=CCO)CN1C1C3OCC21` (centres undefined), the LC retention time was 3.6 min.

As to `COc1ccc(C2CC(=O)c3c(O)cc(OC4OC(CO)C(O)C(O)C4OC4OC(C)C(O)C(O)C4O)cc3O2)cc1` (centres undefined), the LC retention time was 5.42 min.

As to `CCCCCCCCC=CCCCCCCCC(=O)OCC(O)COP(=O)([O-])OCC[NH3+]` (centres undefined), the LC retention time was 10.2 min.

Turning to `NC(CCC(=O)NCC(=O)O)C(=O)O` (centres undefined), the LC retention time is 1.67 min.

Regarding `C[N+]1([O-])CCCC1c1cccnc1` (centres undefined), the LC retention time is 1.82 min.

Turning to `CC(C)=CCc1cc(C2CC(=O)c3c(O)cc(O)cc3O2)ccc1O` (centres undefined), the LC retention time is 8.11 min.

In the case of `COc1cc2c(cc1OC)-c1cc3ccc(OC)c(OC)c3c[n+]1CC2`, the LC retention time was 4.96 min.

Take `CCC1CN2CCc3cc(OC)c(OC)cc3C2CC1CC1NCCc2cc(OC)c(OC)cc21` (centres undefined): the LC retention time was 3.41 min.

For the compound `COc1cc(CC2C(=O)OCC2Cc2ccc(OC)c(OC)c2)ccc1O` (centres undefined), the LC retention time was 6.63 min.

For the compound `CC1OC(OC2C(OC3CCC4(C)C(=CCC5C4CCC4(C)C5CC5OC6(CCC(COC(=O)CC(C)(O)CC(=O)O)CO6)C(C)C54)C3)OC(CO)C(O)C2O)C(O)C(O)C1O` (centres undefined), the LC retention time is 7.38 min.

Turning to `CC1OC(OC2C(OC3CCC4(C)C(CCC5(C)C4CC=C4C6CC(C)(C)CCC6(C(=O)O)CCC45C)C3(C)CO)OCC(O)C2O)C(O)C(O)C1O` (centres undefined), the LC retention time was 7.96 min.

Regarding `CC(=O)NC(CC(C)C)C(=O)O` (centres undefined), the LC retention time was 3.81 min.

On to `CC1OC(Oc2cc(O)c3c(=O)c(OC4OC(C)C(O)C(O)C4O)c(-c4ccc(O)c(O)c4)oc3c2)C(O)C(O)C1O` (centres undefined), for which the LC retention time is 3.67 min.

Take `CSCC1OC(n2cnc3c(N)ncnc32)C(O)C1O` (centres undefined): the LC retention time is 2.7 min.

For `CCCCc1ccc(C(=O)O)nc1`, the LC retention time was 2.79 min.

As to `COc1cccc2c(=O)c3ccoc3n(C)c12`, the LC retention time was 5.59 min.

For the compound `CN(C)Cc1c[nH]c2ccccc12`, the LC retention time is 3.06 min.

Turning to `CCCCCCCCCCCCOS(=O)(=O)O`, the LC retention time was 8.65 min.

In the case of `CS(=O)CCCCCCCCC(=O)O` (centres undefined), the LC retention time is 4.43 min.

As to `COc1ccc2ccc(=O)oc2c1CC=C(C)C`, the LC retention time was 8.75 min.

Consider `CC(=O)OC1CC(COC2OC(CO)C(O)C(O)C2O)CNC12OC1CC3C4CCC5CC(OC6OC(CO)C(OC7OC(CO)C(OC8OC=C(O)C(O)C8O)C(O)C7OC7OC(CO)C(O)C(O)C7O)C(O)C6O)CCC5(C)C4CCC3(C)C1C2C` (centres undefined), for which the LC retention time is 3.88 min.

As to `NC(N)=NCCCCNC(=O)C=Cc1ccc(O)cc1`, the LC retention time is 3.07 min.

Turning to `O=c1cc(-c2ccc(O)c(O)c2)oc2c(C3OC(CO)C(O)C(O)C3O)c(O)c(C3OC(CO)C(O)C(O)C3O)c(O)c12` (centres undefined), the LC retention time is 3.1 min.

With `COc1ccc2c(c1OC)C(=O)OC2C1c2cc3c(cc2CCN1C)OCO3` (centres undefined), the LC retention time was 4.21 min.

With `COc1cc(C=CNC(=O)C=Cc2ccc(O)c(OC)c2)ccc1O`, the LC retention time is 4.38 min.

With `COc1ccc(C2CC(=O)c3c(O)cc(OC4OC(COC5OC(C)C(O)C(O)C5O)C(O)C(O)C4O)cc3O2)cc1` (centres undefined), the LC retention time was 5.33 min.

With `CCCCCC(=O)OC1C(OC2(CO)OC(CO)C(OC(C)=O)C2O)OC(CO)C(OC(=O)CCCC)C1OC(=O)CCCCC` (centres undefined), the LC retention time was 9.49 min.

`CC=C1CN2CCC34C(=C(C=O)C1CC23)Nc1c(O)cccc14` (centres undefined): the LC retention time was 3.38 min.

Regarding `CC1C(=O)OC2C(O)C34C5CC(C(C)(C)C)C36C(OC(=O)C6O)OC4(C(=O)O5)C12O` (centres undefined), the LC retention time was 5.36 min.

With `CC1CCC2C(C)C3C(CC4C5CC=C6CC(OC7OC(CO)C(O)C(OC8OC(CO)C(O)C(O)C8O)C7O)CCC6(C)C5CCC43C)N2C1` (centres undefined), the LC retention time was 4.65 min.

In the case of `CCC1CC2CN3CCC4(O)C(=Nc5ccc(OC)cc54)C(C(=O)OC)(C2)C13` (centres undefined), the LC retention time was 4.01 min.

Regarding `CNC(=O)Oc1ccc2c(c1)C1(C)CCN(C)C1N2C` (centres undefined), the LC retention time is 3.31 min.

As for `C=CC1C(OC2OC(CO)C(O)C(O)C2O)OC=C2C(=O)N3Cc4c([nH]c5ccccc5c4=O)C3CC21` (centres undefined), the LC retention time was 4.07 min.

On to `O=C(C=Cc1ccc(O)cc1)OCC1OC(OC2C(c3c(O)cc4oc(-c5ccc(O)c(O)c5)cc(=O)c4c3O)OC(CO)C(O)C2O)C(O)C(O)C1O` (centres undefined), for which the LC retention time is 3.81 min.

Turning to `NCCCCNC(=O)c1ccccc1`, the LC retention time is 2.71 min.

Turning to `CC1OC(OC2C(OC3C(OC4CCC5(C)C(CCC6(C)C5CC=C5C7CC(C)(C)C(OC8OC(C)C(O)C(O)C8O)CC7(C)CCC56C)C4(C)CO)OC(C(=O)O)C(O)C3O)OC(C(=O)O)C(O)C2O)C(O)C(O)C1O` (centres undefined), the LC retention time is 5.68 min.

Regarding `COc1ccc(-c2coc3cc(OC4OC(COC(=O)CC(=O)O)C(O)C(O)C4O)cc(O)c3c2=O)cc1` (centres undefined), the LC retention time is 6.06 min.

Regarding `COc1cc(CC(CO)C(CO)Cc2ccc(O)c(OC)c2)ccc1O` (centres undefined), the LC retention time was 4.76 min.

Turning to `CCCCCCCCNC(O)CCc1ccc(O)c(OC)c1` (centres undefined), the LC retention time is 5.25 min.

Take `O=C1CC(c2ccccc2)Oc2ccccc21` (centres undefined): the LC retention time was 8.5 min.

For the compound `CC(C)=CCc1cc(C(O)=CC(=O)c2cc(CC=C(C)C)c(O)cc2O)ccc1O`, the LC retention time is 9.52 min.

`COc1ccc(CC2c3cc(OC)c(OC)cc3CCN2C)cc1OC` (centres undefined): the LC retention time was 4.26 min.

`CC(C)=CCc1cc(-c2coc3c(C(C=C(C)C)c4cc(-c5coc6cc(O)cc(O)c6c5=O)ccc4O)c(O)cc(O)c3c2=O)ccc1O` (centres undefined): the LC retention time is 8.22 min.

`CCC(C)C(N)C(=O)NC(C(=O)O)C(C)C` (centres undefined): the LC retention time was 2.55 min.

`CC=CS(=O)CC(NC(=O)CCC(NCC1(O)OCC(O)C(O)C1O)C(=O)O)C(=O)O` (centres undefined): the LC retention time is 1.83 min.

On to `CC1OC(OC2CCC3(C)C(CCC4(C)C3C=CC35OCC6(CCC(C)(C)CC63)C(O)CC45C)C2(C)CO)C(O)C(OC2OC(CO)C(O)C(O)C2O)C1O` (centres undefined), for which the LC retention time was 8.25 min.

For `COc1cc(-c2[o+]c3cc(O)cc(O)c3cc2OC2OC(CO)C(O)C(O)C2O)ccc1O` (centres undefined), the LC retention time was 3.15 min.

Turning to `COC(=O)C1(O)CC23CCCN4CCC5(c6ccc7c(c6NC15CC2)OCO7)C43` (centres undefined), the LC retention time was 3.61 min.

Consider `CCC1CN2CCc3c([nH]c4cccc(OC)c34)C2CC1C(=COC)C(=O)OC` (centres undefined), for which the LC retention time was 5.54 min.

As for `COc1cc(O)c(CC=C(C)C)c(O)c1C(=O)C=Cc1ccc(O)cc1`, the LC retention time is 9.06 min.

With `COc1c(CO)c(OC2OC(COC3OCC(O)C(O)C3O)C(O)C(O)C2O)cc2c1C(=O)c1ccccc1C2=O` (centres undefined), the LC retention time was 5.23 min.

For the compound `CC(=O)N1CC(C)CCC12OC1CC3C4CC=C5CC(O)CCC5(C)C4CCC3(C)C1C2C` (centres undefined), the LC retention time was 7.36 min.

Take `CCN1CC2(COC(=O)c3ccccc3N)CCC(OC)C34C5CC6C(OC)CC(O)(C5C6OC)C(O)(C(OC)C23)C14` (centres undefined): the LC retention time was 5.5 min.

On to `O=C1CC2OCC=C3CN4CCC56c7ccccc7N1C5C2C3CC46` (centres undefined), for which the LC retention time was 3.46 min.

Take `CN1Cc2c(ccc3c2OCO3)C2C(O)Cc3cc4c(cc3C21)OCO4` (centres undefined): the LC retention time is 4.53 min.

`COc1cc(-c2[o+]c3cc(O)cc(O)c3cc2OC2OC(CO)C(O)C(O)C2O)cc(OC)c1O` (centres undefined): the LC retention time was 3.19 min.

Values taken from the RepoRT retention time repository.
